Where two headings read alike, the source gives them in different places. Starred links: 1 amine or outer side, 2 acyl side, 3 side chain; linkers in the order of their positions; H or OH if unused. Positions of bridges follow the written chain, without caps; N, C: chain ends. Non-standard residues stand in square brackets, D forms with d. Residues, ends and D or L forms follow the SMILES beside them. *: point of attachment. Orn(4R-OH,5R-OCH2CH2NMe3+) = C[N+](C)(C)CCO[C@@H](N[*:3])[C@H](O)C[C@H](N[*:1])C(=O)[*:2]; pTerphenylCO(4''-OnC5H11) = CCCCCOc1ccc(-c2ccc(-c3ccc(C(=O)*)cc3)cc2)cc1; hTyr(3S-OH,4S-OH) = N[C@H](C(=O)O)[C@H](O)[C@@H](O)c1ccc(O)cc1; Pro(3S-OH,4S-Me) = C[C@H]1CN[C@H](C(=O)O)[C@H]1O; Hyp = O=C(O)[C@@H]1C[C@@H](O)CN1
Experiments:
[1] = Dropwise addition of CD101 acetate 4 mg/mL solutions to 0.9% saline solution or PBS buffer, observed for drug insolubility; type: physicochemical; settings: 4 mg/mL in 5% dextrose and 0.5% Tween 80, pH 5.4
Sprague Dawley rats = assay: 14-day repeat-dose intravenous infusion toxicity study; type: in vivo; settings: for Animals that did not receive ten consecutive days of treatment (Days 5-14): females
Protocol: The primary purpose of this study was to evaluate the toxicity of CD101 when administered intravenously as a 20-minute infusion into the lateral tail vein of Sprague Dawley rats for fourteen consecutive days. A positive control group (Eraxis®) with a similar structure and pharmacodynamic activity was included in the study design.
The test article, CD101 acetate, was a white to off-white powder. The test article was prepared into dosing formulations for intravenous dose administration. One hundred experimentally naïve Sprague Dawley rats (50 males and 50 females), a minimum of 8 weeks old and weighing 255-318 grams (males) and 192-215 (females) at the outset of the study were assigned to treatment groups as shown in Table 7 below:
All animals were dosed on Days 1 through 3 inclusive. As a result of tail vein irritation observed among all study groups, dose administration was suspended on Day 4 to allow the tails to recover. Dosing resumed on Day 5 and continued for a maximum of ten additional days (Days 5 through 14 inclusive). Animals that could no longer be dosed during this time remained on study.
Male and female Sprague Dawley rats were to receive CD101 acetate at doses of 0, 2, 6 and 20 mg/kg/day (Groups 1, 3, 4 and 5, respectively) or Eraxis® (the positive control article, Group 2) at a dose of 40 mg/kg/day, intravenously as a 20 minute infusion into the left or right lateral tail vein for fourteen consecutive days. During the first three treatment days, all animals were dosed with the first vehicle used on this study (1.75% Tween 80/5% Dextrose: Groups 1 and 3-5; 5% Dextrose: Group 2). As a result of the localized tail swelling observed during the first three days of treatment, study Day 4 served as a drug-free day to alleviate tail vein irritation. Dose administration resumed on Day 5 using a new vehicle (5% Mannitol/2.5% Tween 80/0.3% acetic acid: Groups 1 and 3-5; 5% Mannitol/0.3% acetic acid: Group 2) for the remainder of the treatment period (Days 5-14). Those animals that could no longer be dosed because of severe vein irritation were retained on study, untreated, until the end of the study (Day 15).

[2] = Solubility of CD101 acetate in various media; type: physicochemical; settings: for solubility: read-out: Solubility
Excerpt: Table 1 below provides the solubility of CD101 acetate in different solutions.

CCCCCOc1ccc(-c2ccc(-c3ccc(C(=O)N[C@H]4C[C@@H](O)[C@@H](OCC[N+](C)(C)C)NC(=O)[C@@H]5[C@@H](O)[C@@H](C)CN5C(=O)[C@H]([C@@H](C)O)NC(=O)[C@H]([C@H](O)[C@@H](O)c5ccc(O)cc5)NC(=O)[C@@H]5C[C@@H](O)CN5C(=O)[C@H]([C@@H](C)O)NC4=O)cc3)cc2)cc1 [CD101 acetate] ({pTerphenylCO(4''-OnC5H11)}-[Orn(4R-OH,5R-OCH2CH2NMe3+)]T[Hyp][hTyr(3S-OH,4S-OH)]T[Pro(3S-OH,4S-Me)]; lactam 1-C)
Appearance after 1.5 mL added to (A) 5 mL 0.9% saline solution [1]: clear
Incidence of tail vein irritation (Sprague Dawley rats; Days 1-3, first vehicle (1.75% Tween 80 and 5% Dextrose for CD101 acetate; 5% Dextrose for Eraxis), Eraxis 40 mg/kg/day, CD101 acetate 6 and 20 mg/kg/day, males and females): highest
Vein irritation compared to Groups 1, 3 and 4 (Sprague Dawley rats; Days 5-14, second vehicle (5% Mannitol, 2.5% Tween 80, 0.3% Acetic Acid for CD101 acetate; 5% Mannitol and 0.3% Acetic Acid for Eraxis), Eraxis 40 mg/kg/day, CD101 acetate 20 mg/kg/day): only marginally higher
Animals that did not receive ten consecutive days of treatment (Days 5-14) (Sprague Dawley rats; high dose 20 mg/kg/day (Group 5), second vehicle 5% Mannitol/2.5% Tween 80/0.3% acetic acid): 90%
Animals that did not receive ten consecutive days of treatment (Days 5-14) (Sprague Dawley rats; low dose 2 mg/kg/day (Group 3), second vehicle 5% Mannitol/2.5% Tween 80/0.3% acetic acid): 10%
Animals that did not receive ten consecutive days of treatment (Days 5-14) (Sprague Dawley rats; mid-dose 6 mg/kg/day (Group 4), second vehicle 5% Mannitol/2.5% Tween 80/0.3% acetic acid): 10%
Animals dosed for less than the intended ten-day duration (Days 5-14) as a result of tail swelling/lesions (Sprague Dawley rats; males, high dose 20 mg/kg/day (Group 5), second vehicle 5% Mannitol/2.5% Tween 80/0.3% acetic acid): 30%
solubility ([2]; 15 mM potassium chloride, saline or isotonic, Potassium chloride (15 mM)): > 1.7 mg/mL
solubility ([2]; 50 mM acetate buffer with 0.4% Tween 20, aqueous with cosolvent or surfactant or cyclodextrin, 50 mM Acetate buffer pH 4.5 with 0.4% Tween 20, maximum solubility not reached): > 31.3 mg/mL
solubility ([2]; 100 mM lactate buffer, aqueous buffer, Lactate buffer (100 mM), pH 6.5, maximum solubility not reached): > 48 mg/mL
solubility ([2]; 100 mM lactate buffer, aqueous buffer, Lactate buffer (100 mM), pH 7.4, maximum solubility not reached): > 51 mg/mL
solubility ([2]; 100 mM phosphate buffer, pH 7.4, aqueous buffer): 0.007 to 0.01 mg/mL
solubility ([2]; 150 mM KCl, saline or isotonic, KCl (150 mM)): < 0.2 mg/mL
solubility ([2]; 150 mM potassium chloride, saline or isotonic, Potassium chloride (150 mM)): 0.16 mg/mL
solubility ([2]; 0.9% saline with 0.125% Tween 80, aqueous with cosolvent or surfactant or cyclodextrin, 0.9% Saline (USP) with 0.125% Tween 80): > 0.8 mg/mL
solubility ([2]; 0.9% saline with 0.5% Tween 80, aqueous with cosolvent or surfactant or cyclodextrin, 0.9% Saline (USP) with 0.5% Tween 80): > 3.5 mg/mL
solubility ([2]; 0.9% saline with 1% Tween 20, aqueous with cosolvent or surfactant or cyclodextrin, 0.9% Saline (USP) with 1% Tween 20, maximum solubility not reached): > 2.6 mg/mL
solubility ([2]; 0.9% saline with 2.5% Tween 80, aqueous with cosolvent or surfactant or cyclodextrin, 0.9% Saline (USP) with 2.5% Tween 80 (polysorbate 80)): > 3.5 mg/mL
solubility ([2]; 0.9% saline with 4% dodecylmaltoside and 1% Tween 20, aqueous with cosolvent or surfactant or cyclodextrin, 0.9% Saline Solution (USP), 4% dodecylmaltoside (DDM), 1% Tween 20, maximum solubility not reached): > 10 mg/mL
solubility ([2]; 0.9% saline with 7% tetradecylmaltoside, aqueous with cosolvent or surfactant or cyclodextrin, 0.9% Saline Solution (USP), 7% tetradecylmaltoside (TDM), maximum solubility not reached): > 11 mg/mL
Solubility in words ([2]; PBS buffer): nearly insoluble
solubility ([2]; PBS buffer with 2.5% Tween 80, pH 7.4, aqueous with cosolvent or surfactant or cyclodextrin): > 4 mg/mL
solubility ([2]; Water (USP), maximum solubility not reached): > 100 mg/mL
solubility ([2]; aqueous buffer, 100 mM Tris buffer, pH 7.4, maximum solubility not reached): > 52 mg/mL
solubility ([2]; aqueous buffer, 1:10 diluted PBS buffer, pH 7.4, maximum solubility not reached): > 2.1 mg/mL
solubility ([2]; aqueous buffer, 5% Citric Acid, maximum solubility not reached): > 18.6 mg/mL
solubility ([2]; aqueous buffer, 50-100 mM Acetate buffer, pH 4.5, maximum solubility not reached): > 45 mg/mL
solubility ([2]; aqueous buffer, Phosphate buffered saline (PBS buffer), pH 7.4): 0.005 to 0.007 mg/mL
solubility ([2]; aqueous with cosolvent or surfactant or cyclodextrin, 0.3% acetic acid, 5% mannitol, 2.5% Tween 80, pH 4.5, maximum solubility not reached): > 15 mg/mL
solubility ([2]; aqueous with cosolvent or surfactant or cyclodextrin, 0.85% Tween 80 in PBS buffer, pH 7.4, maximum solubility not reached): > 4.1 mg/mL
